Data on 16 molecules can be found in patent publication US9044015B2, “Heterocyclic compounds as pesticides” (Bayer CropScience AG, priority 2010, dated 2015).

Molecules are shown by their SMILES.

Data set [1] can be described thus: Determination of the log P values (formic acid method). How it is done: 1) Description of Method for Determination of the log P Values (Formic Aid Method)
Eluents for determination in the acidic range (pH 3.4):
Eluent A: acetonitrile+1 ml of formic acid/liter. Eluent B: water+0.9 ml of formic acid/liter.
The lambda max values were determined in the maxima of the chromatographic signals using the UV spectra from 200 nm to 400 nm.

Data set [2] concerns Meloidogyne incognita. Put plainly: Meloidogyne incognita test. Format: in vivo. The following applies: application rate 20 ppm; lettuce in sand with egg/larvae suspension. As to the method: Meloidogyne Incognita Test
Solvent: 80.0 parts by weight of acetone
Vessels are filled with sand, active ingredient solution, Meloidogyne incognita egg/larvae suspension and lettuce seeds. The lettuce seeds germinate and the plants develop. Galls develop on the roots.
After the desired time, the nematicidal action is determined by the gall formation in %. 100% means that no galls were found; 0% means that the number of galls on the treated plants corresponds to the untreated control.

Data set [3] deals with Myzus persicae. The data set is described as follows: Myzus test (spray treatment). Format: in vivo. The following applies: foliar, application rate 500 g/ha, sprayed Chinese cabbage leaf discs, all stages of green peach aphid, read-out: efficacy in % (aphids killed). How it is done: Solvent 78 parts by weight of acetone • • 1.5 parts by weight of dimethylformamide
Emulsifier: 0.5 part by weight of alkylaryl polyglycol ether
To prepare an appropriate active ingredient preparation, 1 part by weight of active ingredient is mixed with the stated amounts of solvent and emulsifier, and the concentrate is diluted with emulsifier-containing water to the desired concentration.

The test system of data set [4] is Myzus persicae organophosphate/carbamate resistant strain. Put plainly: Myzus spray test. The note with it: application rate 100 ppm; after 6 days; sprayed aubergine plants; 100% = all insects killed.
[5] abbreviates: reverse-phase C18 HPLC column, pH 3.4, logP (HCOOH), final compounds table, HPLC reverse-phase C18, acidic range pH 3.4, 55° C.
Where [6] appears, read: reverse-phase C18 HPLC column, pH 3.4, log P (HCOOH), preparation examples, HPLC-MS.

Regarding `CCS(=O)(=O)NC(=O)c1cccc(-c2nnc(-c3cncc(F)c3)s2)n1` [Compound 70], the chromatographic logP (as a rule, a lipophilicity value derived from retention on a column) in data set [1] (setting [5]) was 2.07. Besides, the “efficacy in % (nematicidal action by gall formation)” value in data set [2] amounted to 100%. The pest or weed control at 500 g/ha in data set [3] was determined as 100%.
For `CC(C)(C)S(=O)(=O)NC(=O)c1cccc(-c2cnc(-c3cncc(F)c3)s2)n1` [Compound 56], the chromatographic logP in data set [1] (setting [5]) amounted to 2.77. In addition, the “efficacy in % (nematicidal action by gall formation)” value in data set [2] stood at 100%. Also, the pest or weed control at 500 g/ha in data set [3] stood at 100%.
Consider `O=C(NS(=O)(=O)c1ccc(Cl)s1)c1cccc(-c2nnc(-c3cncc(F)c3)s2)n1` [Compound 78], for which, in data set [1] (setting [5]), the chromatographic logP is 3.08. In addition, the “efficacy in % (nematicidal action by gall formation)” value in data set [2] amounted to 100%. Also, the pest or weed control at 500 g/ha in data set [3] is 100%.
With `COC(=N)c1cccc(-c2cnc(-c3cncc(F)c3)s2)n1` [Compound 50, Methyl 6-[2-(5-fluoropyridin-3-yl)-1,3-thiazol-5-yl]pyridine-2-carboximidoate], the chromatographic logP in data set [1] (setting [6]) amounted to 0.9. Further, the efficacy in % in data set [4] is reported as 100%.
Molecule `COC(=N)c1cccc(-c2cnc(-c3cccnc3)s2)n1` [Compound 49] displayed an efficacy in % in data set [4] of 100%.
Turning to `CCS(=O)(=O)NC(=O)c1cccc(-c2cnn(-c3cccnc3)c2)n1` [Compound 25], the chromatographic logP in data set [1] (pH 3.4, logP (HCOOH)) is 1.77. The pest or weed control at 500 g/ha in data set [3] came out at 100%.
Taken in the same sequence, the figures for `CC(C)N(C)S(=O)(=O)NC(=O)c1cccc(-c2cnc(-c3cncc(F)c3)s2)n1` [Compound 60] were 3.09 and 100%.
Regarding `O=C(NS(=O)(=O)c1cccs1)c1cccc(-c2nnc(-c3cncc(F)c3)s2)n1` [Compound 75], in data set [1] (setting [5]), the chromatographic logP was found to be 2.38. In addition, the “efficacy in % (nematicidal action by gall formation)” value in data set [2] was found to be 100%. For the same molecule, in data set [3], the pest or weed control at 500 g/ha stood at 100%.
Consider `O=C(NS(=O)(=O)C(F)F)c1cccc(-c2cnc(-c3cncc(F)c3)s2)n1` [Compound 11], for which the chromatographic logP in data set [1] (setting [5]) stood at 1.79. For the same molecule, in data set [3], the pest or weed control at 500 g/ha is 100%.
`CS(=O)(=O)Nc1cccc(-c2cnn(-c3cccnc3)c2)n1` [Compound 1, N-{6-[1-(Pyridin-3-yl)-1H-pyrazol-4-yl]pyridin-2-yl}methanesulphonamide]: the chromatographic logP in data set [1] (pH 3.4, log P (HCOOH)) turned out to be 1.26; in data set [1] (pH 3.4, logP (HCOOH)), 1.26. The pest or weed control at 500 g/ha in data set [3] turned out to be 80%.
The molecule `CS(=O)(=O)N(c1cccc(-c2cnn(-c3cncc(F)c3)c2)n1)S(C)(=O)=O` [Compound 14] returned a chromatographic logP in data set [1] (pH 3.4, logP (HCOOH)) of 2.15. Moreover, the pest or weed control at 500 g/ha in data set [3] came out at 90%.
Taken in the same sequence, the figures for `CS(=O)(=O)NC(=O)c1cccc(-c2cnn(-c3cncnc3)c2)n1` [Compound 22] were 1.38 and 100%.
Take `CN(C)S(=O)(=O)NC(=O)c1cccc(-c2cnc(-c3cncnc3)s2)n1` [Compound 62]: the chromatographic logP in data set [1] (setting [5]) came to 1.9. The pest or weed control at 500 g/ha in data set [3] is 80%.
For `CC(=O)NS(=O)(=O)c1cccc(-c2cnc(-c3cncc(F)c3)s2)n1` [Compound 67], in that order: 1.72 and 100%.
For `CS(=O)(=O)NC(=O)c1nc(-c2cnn(-c3cncc(F)c3)c2)cs1` [Compound 46, 4-[1-(5-Fluoropyridin-3-yl)-1H-pyrazol-4-yl]-N-(methylsulphonyl)-1,3-thiazole-2-carboxamide], the chromatographic logP in data set [1] (setting [6]) and in data set [1] (setting [5]) was 1.68 each time. For the same molecule, in data set [3], the pest or weed control at 500 g/ha was found to be 100%.
The molecule `CN(C)S(=O)(=O)NC(=O)c1cccc(-c2cnn(-c3cncc(F)c3)c2)n1` [Compound 16] displayed a chromatographic logP in data set [1] (setting [5]) of 2.42. The pest or weed control at 500 g/ha in data set [3] came out at 100%.
